Results as given in US20180094248A1, “Necroptosis Signaling as a Therapeutic Target for Alzheimer's Disease” (Arizona Board of Regents on behalf of Arizona State …, priority 2016, published 2018).

What was measured:
5xFAD mice = assay: Fluoro-Jade staining of brain sections of 5xFAD mice treated with Nec-1S in vivo; parameters: species or system mouse; conditions: 8-month-old 5xFAD mice; 10 mg/kg i.p. once, then 0.5 mg/ml in drinking water for 21 days; vs vehicle
Protocol: Specifically, mice receive a single intraperitoneal injection of 10 mg/kg Nec1s after which they were given Nec1S in their drinking water at a concentration of 0.5 mg/ml for 21 days.
Immunohistochemistry: Coronal sections from hippocampus and temporal gyms of control (CTL) and Alzheimer's disease (AD) cases were pre-mounted on coated slides and washed in TBS. After blocking in TBSB (TBS, 2% BSA, and 0.1% Triton X), tissue was incubated overnight at 4° C. with the following primary antibodies: RIPK1 (1:200, BD Transduction Laboratories, catalog number 610459), MLKL (1:200, Novus Biologicals, catalog number NBP1-56729), RIPK3 (1:200, RD Systems catalog number MAB7604), pMLKL Ser358/Thr357 (1:200, Abcam, catalog number ab187091), pMLKL (1:200, SAB Signalway Antibody, catalog number 12837), NeuN (1:200, Cell Signaling, catalog number 024307P), Ibal (1:200, Wako, catalog number 09-19741), GFAP (1:200, Cell Signaling, catalog number 3670S), Caspase 3 (1:200, Millipore, catalog number AB3623), phospho-tau pSer202/Thr205 (ATB, 1:200, Thermo Fisher Scientific, catalog number MN1020), and pan-Cadherin (1:200, Abcam, catalog number ab6528 and ab6529). CP13 was a kind gift from Dr. Peter Davies. […]

[1] = test system: primary cortical neurons isolated from APP/PS1 and wild type mice; assay: GFP fluorescence in live AAV-GFP infected primary cortical neurons treated with Nec1S or vehicle; type: cell-based, mouse; conditions: DIV 15; 10 μM at DIV 7 and 11; APP/PS1-veh vs the other three groups incl. APP/PS1-Nec1S
Protocol: At DIV 1, we infected primary cortical neurons isolated from APP/PS1 and wild type mice with an adeno-associated virus (AAV) expressing the green fluorescent protein (GFP) under the neuronal promotor CamKII. At DIV 7 and 11, neurons from the two genotypes were treated with 10 μM Nec1S or vehicle. We then measured GFP fluorescence in live cells as an indication of live neurons.
(§1) Primary neuronal cultures—For the GFP experiments: Primary neurons were isolated from APP/PS1 and NonTg Po pups. The tissue was then dissociated in Neurobasal media (Thermo Fisher Scientific) and spun down for 3 minutes at 5,000 g at 4° C. The supernatant was discarded and the pellet was re-suspended in 1 ml of Neurobasal media supplemented with B27 (Thermo Fisher Scientific). An equal volume per each sample was seeded into a Poly-D-Lysine-coated (10 mg/mL, Sigma-Aldrich) black 96-well tissue culture plate. […] Neurons were treated for a total of 15 days and the GFP fluorescence was measured every 4 days. […] All fluorescent measurements (excitation 488 nm, emission 509 nm) were performed using the Synergy HT multi-mode microplate reader with the Gen5 software (BioTek, Winooski, Vt.). The reader was pre-heated to 37° C. to maintain optimal conditions for the neurons during the measurements. […]

[2] = test system: primary cortical neurons from APP/PS1 mice; assay: NeuN count of APP/PS1 primary cortical neurons treated with Nec-1S or vehicle; type: cell-based, mouse
Protocol: (§2) To probe for a direct link between necroptosis and neuronal loss in AD, we plated primary cortical neurons from APP/PS1 and wild type littermate mice. After seven days in vitro (DIV), neurons were treated with 10 μM of the necroptosis inhibitor 7-Cl-O-necrostatin (Nec15) or vehicle. Treatment was repeated at DIV 11. We then fixed neurons at DIV 11 and 15, and stained them for NeuN to count total number of neurons. […] To determine changes in necroptosis, we isolated proteins from neurons of the same four groups and measured the levels of total and phosphorylated MLKL by western blot.
as §1, with “Scientific).” for “Scientific). An equal volume per each sample was seeded into a Poly-D-Lysine-coated (10 mg/mL, Sigma-Aldrich) black 96-well tissue culture plate.”

[3] = test system: primary cortical neurons from wild type littermate mice; assay: NeuN count of wild type primary cortical neurons treated with Nec-1S or vehicle; type: cell-based, mouse; conditions: 10 μM at DIV 7 and DIV 11
Protocol: as §2
as §1, with “Scientific).” for “Scientific). An equal volume per each sample was seeded into a Poly-D-Lysine-coated (10 mg/mL, Sigma-Aldrich) black 96-well tissue culture plate.”

Compound: CN1C(=O)NC(Cc2c[nH]c3c(Cl)cccc23)C1=O (centres unmarked) [Nec1S, 5-((7-chloro-1 H-indol-3-yl)methyl)-3-methylimidazolidine-2,4-dione]
- Fluoro-Jade-positive neurons (5xFAD mice): fewer Fluoro-Jade-positive neurons compared to vehicle-treated 5xFAD mice
- GFP fluorescence in live cells (indication of live neurons) [1]: APP/PS1-veh group had lower GFP levels compared to the other three groups
- number of NeuN-positive neurons ([2]; DIV 15, 10 μM at DIV 7 and DIV 11, APP/PS1-Nec1S vs APP/PS1-veh and WT groups): more neurons than the APP/PS1-veh group, and as many neurons as both WT groups
- in vitro cell death of APP/PS1 primary cortical neurons ([2]; overall conclusion of the two independent experiments (NeuN and GFP), 10 μM): reduces the accelerated in vitro cell death of APP/PS1 primary cortical neurons
- decrease in the number of wild type neurons [3]: did not significantly affect the decrease in the number of wild type neurons
